In one assay the test system is Recombinant human FGF23. Description: In vitro protease reactions: FGF23 proteolysis by t-PA or uPA (silver stained SDS-PAGE, western blot). Format: biochemical. An excerpt:
(§1) Recombinant human t-PA, uPA, and stable PAI-1 were obtained from Molecular Innovations Inc., Novi, Mich. Recombinant Human FGF23 was obtained from R and D Systems Inc., Minneapolis Minn.
The 6×His tag antibody was obtained from Abcam Inc., Cambridge Mass., and the FGF23 antibody was obtained from Santa Cruz Biotechnology Inc., Dallas Tex. Secondary HRP conjugated donkey anti goat (cross-adsorbed) and goat anti-rabbit antibodies were obtained from Bethyl Laboratories Inc., Montgomery, Tex., and Molecular Innovations Inc. respectively. 4-12% NuPAGE Bis-Tris Gels, PVDF iblot gel transfer stacks, 4×NuPAGE LDS sample buffer and 10×NuPAGE sample reducing agent were from Life Technologies Inc., Carlsbad, Calif. Luminata Forte Western HRP Substrate detection reagent was from EMD Millipore Inc., Billerica, Mass.
(§2) Gels were silver stained using the Pierce Silver Stain Kit from Thermo Fisher Scientific Inc. Waltham, Mass., according to the manufacturer's protocol.
Recombinant human FGF23 (1-1.5 μg) was incubated at 37° C. for 4 hours (or other time point indicated) with either recombinant human t-PA (1.1 μg) or uPA (1.1 μg), (in addition to 1.70 μg of recombinant human stable PAI-1 where indicated) in reaction buffer (25 μl final volume) containing: 50 mM Tris-HCl pH 8.0, 150 mM NaCl, 200 mM CHAPS, 0.1% PEG-8000, and 1% DMSO. […]
Background: Immunoblotting shows a protein as a band on a membrane.

A further assay concerns Klotho (kl/kl) mice. Description: TM5441 treatment of Klotho mice, plasma FGF23 by ELISA. Format: in vivo. The following applies: 100 mg/kg/day in chow for 120 days, C-Term ELISA (FIG. 1). As to the method:
Four week old Klotho (kl/kl) mice (n=11) were administered TM5441 at the dose of 100 mg/kg/day for 120 days. The chow diet containing the inhibitor was prepared by mixing a homogenous suspension of TM5441 made in 0.5% Carboxy Methyl Cellulose into the powder chow diet (Harland Teklad LM-485 number 7012). The plasma levels of FGF23 was measured using an ELISA kit (Immutopics, Inc. Mouse/Rat FGF-23 (C-Term) ELISA Kit, Cat. #60-6300) by following the manufacturer's protocol.
On the technique in general: An ELISA detects its analyte on a solid surface through an enzyme-linked reagent.

The target in assay [1] is T1, recombinant human stable PAI-1 (Homo sapiens, UniProt P05121, K177T/M377I/N173H/Q342L).
T1 construct: purchased Molecular Innovations Inc., Novi, Mich
The assay can be described thus: In vitro FGF23 proteolysis by t-PA with PAI-1 and added TM5441. The assay is classed as biochemical. Particulars: TM5441 added to t-PA + PAI-1 reaction, 4 hours at 37° C., silver stained SDS-PAGE, FIG. 3. As to the method:
as §1
TM5441 was obtained from Toshio Miyata, M. D., Ph.D. and Renascience, Inc. A stock solution of 2.5 mM was prepared in DMSO.
as §2
Recombinant human FGF23 (1-1.5 μg) was incubated at 37° C. for 4 hours (or other time point indicated) with either recombinant human t-PA (1.1 μg) or uPA (1.1 μg), (in addition to 1.70 μg of recombinant human stable PAI-1 where indicated) in reaction buffer (25 μl final volume) containing: 50 mM Tris-HCl pH 8.0, 150 mM NaCl, 200 mM CHAPS, 0.1% PEG-8000, and 1% DMSO. To terminate the reaction, samples were incubated at 95° C. for 5 minutes in the presence of 1×NuPAGE LDS sample buffer and 1× NuPAGE sample reducing agent.

T1 sequence (P05121 24-402 N173H/K177T/Q342L/M377I): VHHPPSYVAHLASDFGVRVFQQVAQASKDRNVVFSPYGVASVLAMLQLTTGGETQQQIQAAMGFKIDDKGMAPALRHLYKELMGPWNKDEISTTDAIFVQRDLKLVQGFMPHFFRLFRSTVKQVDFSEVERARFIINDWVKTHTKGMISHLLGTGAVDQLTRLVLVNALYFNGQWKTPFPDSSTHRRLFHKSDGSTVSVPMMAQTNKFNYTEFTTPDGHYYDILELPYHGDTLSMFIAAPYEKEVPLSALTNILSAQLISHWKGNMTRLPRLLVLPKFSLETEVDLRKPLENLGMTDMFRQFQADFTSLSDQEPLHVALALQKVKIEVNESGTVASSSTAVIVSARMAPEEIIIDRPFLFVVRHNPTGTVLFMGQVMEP

As to “t-PA: Recombinant human t-PA (tissue plasminogen activator) from Molecular Innovations Inc.”, the “FGF23 proteolytic cleavage (smaller fragments on silver stained SDS-PAGE gel)” value with Recombinant human FGF23 (4 hours at 37° C., FIG. 2) is “smaller fragments are generated”. Moreover, the “FGF23 fragments by western blot” value in the assay on Recombinant human FGF23 (t-PA, various time points at 37° C., N-term and C-term fragments, FIG. 4) is recorded as “confirmed to be of FGF23 origin”.
On to `O=C(COCC(=O)Nc1ccc(Cl)cc1C(=O)O)Nc1cccc(-c2ccoc2)c1` [TM5441], for which, in the assay with Klotho (kl/kl) mice, the FGF23 plasma levels entry is given as “markedly reduced”. Besides, in assay [1], the “Effect on PAI-1-inhibited FGF23 proteolysis by t-PA” value is given as “restored”.

The values above are taken from patent US20200046811A1, “METHODS AND COMPOSITIONS FOR MODULATING FGF23 LEVELS” (Northwestern University, priority 2014, published 2020).
